Measurements: patent US11110182B2, “Multifunctional RNA nanoparticles and methods for treating cancer and therapeutic resistant cancer” (University of Cincinnati, priority 2016, dated 2021)
Strand notation (5' to 3'): a small letter for the sugar, then the base; units joined by * are phosphorothioate-linked, units joined directly phosphodiester-linked; [ ] holds rarer units or linkages, { } end groups; capitals alone tell only the bases. r = 2'-OH (RNA); f = 2'-fluoro

B1: pRNA-HER2apt-siScram: control pRNA nanoparticle with HER2 aptamer and scramble siRNA; strands p1 SEQ ID NO: 1, p2 SEQ ID NO: 2 (nucleic acid)
chain 1: GGAUCACGCUUCAUAUACAAAGGAUCAAUCAUGGCCAAUCUUAUUUCGCCCAUGACCUU
chain 2: GGUCAUGGGCGAAAUAAGAAAGGCCAUGUGUAUGUGGGGGGAGGACGAUGCGGUCUGCUGUGCUUGAUAUGCCCCAGACGACUCGCCCCCCACAUACUUUGUUGAUCCAAUGUAUAUGAAGCGUGAUCCUU
modifications: pRNA-HER2apt-siScram, p1; pRNA-HER2apt-siScram, p2

Legend:
MED1 = MED1 protein level by western blotting in BT474 cells; assay type: cell-based, human; conditions: BT474, 48 h
Experimental: FIG. 3A) BT474 cells were incubated with 10 μg/mL control and pRNA-HER2apt-siMED1 nanoparticles for 48 h, and MED1 mRNA level was determined by real-time PCR. FIG. 3B) BT474 cells were incubated directly with (as indicated by -) or transfected with indicated pRNAs using lipofectamine 2000. At 48 h post treatment, MED1 protein levels were determined by western blotting. FIG. 3C) BT474 cells were treated with 10 μg/mL pRNA nanoparticles for 48 h and assayed for cell viability by MTT assay. FIG. 3D) Cells were treated as above and seeded for migration, and FIG. 3E) invasion transwell assays. Scale bar: 50 μm. FIG. 3F) After pRNA treatment for 48 h, the mRNA levels of ERα target genes TFF-1, FIG. 3G) c-Myc, and FIG. 3H) cyclin D1 in BT474 cells were determined by real-time PCR.
FIG. 7A) Six HER2-targeting RNA aptamers were selected from previous literatures, and their secondary structures were predicted using Srna-fold software. FIG. 7B) Six p2 strands containing the six different HER2 RNA aptamers were synthesized and annealed with the same p1 strand to generate six different pRNA-HER2apt-MED1 siRNA nanoparticles, respectively, followed by examination using 8% native PAGE gel electrophoresis. FIG. 7C) BT474 cells were treated with above pRNA nanoparticles for 48 h, and then MED1 protein level was determined by western blotting. […] FIG. 7D) 1 μg pRNA nanoparticles were incubated with recombinant Dicer enzyme (Genlantis) at 37° C. for 12 h, the product was separated by 8% native PAGE gel.
FIG. 9A) BT474 cells were treated with different concentrations of pRNA nanoparticles as indicated for 48 h. After that, MED1 protein level was determined by western blots, and FIG. 9B) the cell viability was determined by MTT assay.
Cell culture. Human breast cancer luciferase-overexpressing BT474 and MDA-MB-231 cells were maintained in DMEM medium (Hyclone, Thermo Scientific) supplemented with 10% fetal bovine serum (FBS, Sigma) and 1% penicillin/streptomycin (Corning) at 37° C. in a humidified atmosphere with 5% CO2.^53 • Generation of pRNA nanoparticles. The two strands of pRNA were synthesized with the DNA templates, which were amplified with overlapping primers (Sigma) by PCR methods, using a T7 promoter-controlled in vitro RNA transcription system as previously described^33 (Table 1). All the CTP and UTP used for synthesis of the pRNA nanoparticles were 2′-fluoro modified, except the control unmodified pRNA nanoparticles used in the stability assays. Following an overnight transcription at 37° C., RNA strands were purified using RNA clean and concentrator kits (ZYMO research) and examined by 8 M urea denatured 8% PAGE gel. pRNA nanoparticles were assembled by mixing the equal molar amounts of p1 and p2 strands and gradually annealing from 90° C. to 20° C. in 1×RNA annealing buffer containing 50 mM Tris-HCl (pH 7.5), 50 mM NaCl and 1 mM EDTA on a PCR machine. […] The hydrodynamic diameter and Tm value of pRNA nanoparticles were determined using dynamic light scattering and TGGE assay, respectively, as previously described.^54 The AFM imaging of the pRNA nanoparticles was performed at the University of Nebraska Medical Center imaging facility as previously reported.^55 Briefly, the pRNA nanoparticles (5 μL) were deposited on APS modified mica ^56 for a total of 2 min of incubation time. […]

[1] = test system: BT474 orthotopic xenograft tumors; experiment: Anti-tumor therapy in BT474 orthotopic xenograft breast tumor mouse model; assay type: in vivo, athymic nude mice; conditions: single agent; for tumor lung metastasis: H&E staining of whole lung
Experimental: FIG. 5A) BT474 orthotopic xenograft mouse models were treated with control pRNA-HER2apt-siScram or pRNA-HER2apt-siMED1 (4 mg/Kg) once a week, in combination with vehicle or tamoxifen (TAM, 0.5 mg/mice/day) 5 days per week. Tumor sizes were measured every three days. FIG. 5B) After three weeks, mice were i.p. injected with D-luciferin, and representative in vivo images of BT474 tumors were recorded using IVIS Lumina imaging system. FIG. 5C) Average weight of the tumors excised at the end of the treatment, and FIG. 5D) the representative photos of tumors. FIG. 5E and FIG. 5F) MED1 expression in the BT474 tumors was examined using IHC staining and FIG. 5G) immunoblotting. FIG. 5H) The expression of Ki-67 in tumor tissues was analyzed using IHC staining, and FIG. 5I) the percentage of Ki-67 positive cells was counted. Scale bar: 100 μm.
FIG. 6A) Whole lung tissues were fixed, embedded, and sectioned for H&E staining, and FIG. 6B) metastasis foci in the whole lung tissues were then counted. Arrow indicates the metastasis foci. Scale bar: 100 μm. FIG. 6C) After digesting tumor tissues with trypsin and 0.1% collagenase, tumor cells were stained for CD44 and CD24, and FIG. 6D) analyzed for CD44^+CD24^−/low stem cell population using flow cytometry. FIG. 6E) Total RNA in the tumor tissues was extracted using TRIZOL reagent, and the expression of TFF-1, FIG. 6F) c-Myc, FIG. 6G) cyclin D1, and FIG. 6H) MMP-9 were determined by real-time PCR.
Migration and metastasis assay. The 8-μm-pore-size polycarbonate membrane, which separates the two chambers of a 6.5-mm Transwell (Costar), was coated with or without 1:8 DMEM-diluted Matrigel (Corning). Transwell assay was performed as previously described.^57 Briefly, BT474 cells were treated with pRNAs alone or together with 4-hydroxy-tamoxifen (4-OHT) for 48 h and starved with serum-free DMEM containing 0.2% BSA overnight. On the next day, cells were collected and 2×10^5 cells were seeded to the upper chamber of Transwell. The lower chamber was filled with 600 μL DMEM medium containing 10% FBS. After incubation at 37° C. for 24 h, cells on the membranes were fixed and stained with 0.1% crystal violet in 20% ethanol solution. Cells at top side of membranes were removed completely, and cells at the bottom side were examined with an Olympus SZX12 microscope and counted. • Mammosphere culture and breast cancer stem cell analyses. BT474 cells were treated with pRNAs for 48 h. Then, cells were suspended in DMEM/F12 medium supplemented with 1×B27 (Thermo Fisher), 20 ng/mL bFGF and 20 ng/mL EGF (R&D), and added into 24-well ultralow attachment plates. After treatment with or without 1 μM 4-OHT for 7 days, mammosphere formation was recorded using an Axiovert S100 TV inverted microscope (Zeiss). Xenograft tumor tissues were cut into small pieces and digested with trypsin and collagenase at 37° C. for 1 h, and tumor cells were collected and rinsed with pre-cold PBS. All cells were stained with FITC-conjugated anti-CD44 antibody and PE-conjugated anti-CD24 antibody (BD Pharmingen) in the dark on ice for 30 min. After resuspension with 0.5 mL PBS buffer, CD44^+/CD24^−/low cell population was analyzed by flow cytometry. • Orthotopic xenograft breast tumor mouse model, in vivo imaging and anti-tumor therapy. Six-week-old female athymic nude mice were purchased from Charles River Laboratories, and all animal procedures were performed under IACUC-approved protocols at the University of Cincinnati. Athymic nude mice were orthotopically injected with 1×10^7 BT474-luc cells mixed with matrigel into the fat pads of the forth pair of mammary glands. When the tumor sizes reached 100-150 mm^3, the mice were randomly divided into four groups (4/group) and intravenously (i.v.) injected with pRNAs (4 mg/Kg) once a week for three weeks. For tamoxifen treatments, 0.5 mg tamoxifen (Sigma) dissolved in sesame oil was intraperitoneally (i.p.) injected into mice 5 days a week for three weeks. […]

Row | Molecule | efficiency of MED1 knockdown among six HER2 RNA aptamers in pRNA nanoparticles (MED1) | tumor lung metastasis [1] | tumor growth ([1]; pRNA 4 mg/Kg i.v. once a week or tamoxifen 0.5 mg i.p. 5 days a week, three weeks)
1 | B3 aptamer: HER2-targeting RNA aptamer B3 (SEQ ID NO: 9), tested within pRNA-HER2apt-MED1 siRNA nanoparticles (rGrGrGrArGrGrAfCrGrAfUrGfCrGrGfUfCfUrGfCfUrGfUrGfCfUfUrGrAfUrAfUrGfCfCfCfCrArGrAfCrGrAfCfUfCrGfCfCfC; part of pRNA three-way junction nanoparticle with siRNA) | highest efficiency |  | 
2 | CC/C(=C(\c1ccccc1)c1ccc(OCCN(C)C)cc1)c1ccccc1 [tamoxifen, reference compound] |  | multiple tumor lung metastasis foci | only weakly inhibited
3 | B1 |  | multiple tumor lung metastasis foci | 
